Source: patent US20240207258A1, “HETEROCYCLIC PDK1 INHIBITORS FOR USE TO TREAT CANCER” (Viracta Therapeutics, Inc., priority 2015, published 2024)
pEC50: −log10 of the molar value.

Tests used:
[1] = tested on: AKT phosphorylation; assay: Pathway modulation in MV4-11 tumor xenografts, pAKT; type: in vivo, mice; settings: MV4-11 tumors, 50 mg/kg oral, 8 hrs
Description: (§1) MV4-11 cells propagated in vitro were implanted subcutaneous into the right flank of 9-week old female NCr nu/nu mice. On the day of implant, MV4-11 cells were harvested during log phase growth and resuspended in phosphate buffered saline (PBS) containing 50% Matrigel™ (BD Biosciences) at a concentration of 1×10^8 cells/mL. Xenografts were initiated by subcutaneously implanting 1×10^7 MV-4-11 cells (0.1 mL suspension) into the right flank of each test animal and tumors were monitored as their volumes approached the target range of 175 to 225 mm^3. Two weeks after implantation, animals were assigned to individual groups of 3 animals with and average tumor volume of approximately 200 mm^3. […] Eight hours post-dose, full blood volume was collected by cardiac puncture under isoflurane anesthesia and tumors were excised and snapfrozen in liquid nitrogen and stored at −80° C. until further analysis. Tumors were pulverized in liquid nitrogen using a Biopulverizer and split into two sample tubes: one for Western blot analysis and one for analysis of compound levels by LC-MS/MS. Western blot analysis was performed as described above. […] Standards and samples were analyzed on a PE Sciex API4000 instrument and compound concentration was quantified and back-calculated to ng compound per g tumor tissue and converted to M concentration assuming 1 g tumor tissue equals 1 mL volume.

[2] = tested on: P-PDK1; assay: Pathway modulation in MV4-11 tumor xenografts, pPDK1; type: in vivo, mice; settings: MV4-11 tumors, 50 mg/kg oral, 8 hrs
[3] = tested on: hematologic tumor cell lines; assay: MTS cell proliferation assay, panel of hematologic cancer cell lines; type: cell-based; settings: range over 16 cell lines, FIG. 3; read-out: potency in the cell proliferation assay (EC50)
Description: (§2) Cell proliferation was measured using the CellTiter 96 Aqueous Non-Radioactive Cell Proliferation Assay (Promega). The CellTiter 96® AQueous Assay is composed of solutions of a tetrazolium compound [3-(4,5-dimethylthiazol-2-yl)-5-(3-carboxymethoxyphenyl)-2-(4-sulfophenyl)-2H-tetrazolium, inner salt; MTS] and an electron coupling reagent (phenazine methosulfate) PMS. MTS is bioreduced by cells into a formazan product that is soluble in tissue culture medium. The absorbance of the formazan product at 490 nm can be measured directly from assay plates without additional processing. The quantity of formazan product as measured by the amount of 490 nm absorbance is directly proportional to the number of living cells in culture. Cells were seeded into 96-well or 384-well clear plates in a volume of 200 μL (96-well) or 50 μL (384-well) at optimized densities ranging from 1,000 to 40,000 cells per well for 96-well plates or 1,200 to 25,000 cells per well for 384-well plates depending on cell-line. After 4-6 hr recovery, serially diluted compounds in DMSO were added to the cells using (0.1% v/v final DMSO concentration). Cells were then grown at 37° C. in a humidified incubator with 5% CO2 for 72 hr. A 20:1 [3-(4,5-dimethylthiazol-2-yl)-5-(3-carboxymethoxyphenyl)-2-(4-sulfophenyl)-2H-tetrazolium](MTS):phenazine methosulfate (PMS) solution in DPBS was made immediately before use, added to each well, and cells were incubated for 1.5 hr at 37° C. The absorbance at 490 nm was then measured using a platereader. Absorbance values were normalized as percent of control (cells incubated in the presence of 0.1% v/v DMSO). Sigmoidal dose-response curves were plotted using log(inhibitor) vs. response—Variable slope (four parameters) model with a top value constrained to 100% (GraphPad Prism version 6.00 for Windows, GraphPad Software, La Jolla California USA). […] Curves for compounds that reached a plateau were matched exactly to the measurement points. […] To determine potential of compounds of the invention to affect viability of hematological cancers, cell lines representing various tumor types were selected and tested. Human cell lines tested were: MOLM-13 (acute myeloid leukemia (AML)), MV4-11 (AML), U-2932 (ABC-diffuse large B cell lymphoma), U-937 (histiocytic lymphoma), U-266 (multiple myeloma), RPMI-8226 (multiple myeloma), CMK (megakaryoblastic cell line), SU-DHL-4 (GCB-diffuse large B cell lymphoma), KG1 (AML), Mec-1 (chronic B-cell leukemia), MOLM-16 (AML), Jeko (B-cell lymphoma), WSU-DLCL2 (B-cell lymphoma), JJN3 (plasma cell leukemia), SU-DHL-6 (GCB-diffuse large B cell lymphoma), and Z-138 (mantle cell lymphoma). In addition, two murine cell lines were tested: A20 […].

[4] = Compound concentration in MV4-11 tumors by LC-MS/MS; type: in vivo, mice; settings: 50 mg/kg oral
Description: as §1

[5] = tested on: MV4-11; assay: MTS cell proliferation assay, MV4-11; type: cell-based, human
Description: (§3) Cell proliferation was measured using the CellTiter 96 Aqueous Non-Radioactive Cell Proliferation Assay (Promega). […] MTS is bioreduced by cells into a formazan product that is soluble in tissue culture medium. The absorbance of the formazan product at 490 nm can be measured directly from assay plates without additional processing. The quantity of formazan product as measured by the amount of 490 nm absorbance is directly proportional to the number of living cells in culture. Cells were seeded into 96-well or 384-well clear plates in a volume of 200 μL (96-well) or 50 μL (384-well) at optimized densities ranging from 1,000 to 40,000 cells per well for 96-well plates or 1,200 to 25,000 cells per well for 384-well plates depending on cell-line. After 4-6 hr recovery, serially diluted compounds in DMSO were added to the cells using (0.1% v/v final DMSO concentration). Cells were then grown at 37° C. in a humidified incubator with 5% CO2 for 72 hr. A 20:1 [3-(4,5-dimethylthiazol-2-yl)-5-(3-carboxymethoxyphenyl)-2-(4-sulfophenyl)-2H-tetrazolium](MTS):phenazine methosulfate (PMS) solution in DPBS was made immediately before use, added to each well, and cells were incubated for 1.5 hr at 37° C. The absorbance at 490 nm was then measured using a platereader. Absorbance values were normalized as percent of control (cells incubated in the presence of 0.1% v/v DMSO). Sigmoidal dose-response curves were plotted using log(inhibitor) vs. response—Variable slope (four parameters) model with a top value constrained to 100% (GraphPad Prism version 6.00 for Windows, GraphPad Software, La Jolla California USA). […] To determine potential of compounds of the invention to affect viability of hematological cancers, cell lines representing various tumor types were selected and tested. […] In addition, two murine cell lines were tested: A20 […].

[6] = tested on: RPMI-8226; assay: MTS cell proliferation assay, RPMI-8226; type: cell-based; settings: Homo sapiens; RPMI-8226, 72 hr
Description: as §2

[7] = tested on: Jeko; assay: MTS cell proliferation assay, Jeko; type: cell-based; settings: Homo sapiens, 72 hr
Description: as §2

[8] = tested on: P-PDK1; assay: Western blot, PDK1 phosphorylation in C1498 cells; type: cell-based, murine; settings: C1498
Description: (§4) For phosphoprotein analyses, cells were seeded into 10 cm petri dishes (10×10^6 cells/dish) in media supplemented with 10% FBS and penicillin/streptomycin. After cells recovered for 1 hr at 37° C., compounds were added in DMSO (0.1% final) and incubated for 4 or 24 hr at 37° C. Cells were then harvested by centrifugation and washed with cold PBS. Cell pellets were resuspended in cell extraction buffer (Invitrogen) supplemented with 2×Halt™ protease and phosphatase inhibitor cocktail (Thermo Scientific), 2 mM sodium orthovanadate, 10 mM EDTA and 4 mM PMSF. Samples were lysed by sonication and incubated on ice for 30 min. Cell debris was removed by centrifugation and protein concentrations were determined using the BCA Protein Assay Kit (Pierce). The clarified lysate was diluted in LDS sample buffer with reducing agent (Life Technologies). […] Gels were run at 110 V and proteins were transferred to a PVDF membrane. Membranes were blocked in TBS blocking buffer (Li-Cor Biosciences) for 1 hr. Primary antibodies (Cell Signaling, Sant Cruz Biotechnology) were added (1:1,000 dilution) in blocking buffer with 0.1% Tween-20 and 1:20,000 dilution of β-actin antibody and incubated for 14 hr at 4° C. […] Bands were quantitated using ImageJ.

[9] = tested on: Molm-13; assay: MTS cell proliferation assay, Molm-13; type: cell-based; settings: Homo sapiens; Molm-13, 72 hr
Description: as §2

[10] = tested on: P-RSK2; assay: Western blot, RSK2 phosphorylation in C1498 cells; type: cell-based, murine; settings: C1498
Description: as §4

[11] = tested on: C1498; assay: MTS cell proliferation assay, C1498; type: cell-based, murine
Description: as §3

[12] = tested on: U-2932; assay: MTS cell proliferation assay, U-2932; type: cell-based; settings: Homo sapiens, U2932; U-2932, 72 hr
Description: as §2

[13] = tested on: P-AKT; assay: Western blot, AKT phosphorylation in A20 cells; type: cell-based, murine
Description: For phosphoprotein analyses, cells were seeded into 10 cm petri dishes (10×10^6 cells/dish) in media supplemented with 10% FBS and penicillin/streptomycin. After cells recovered for 1 hr at 37° C., compounds were added in DMSO (0.1% final) and incubated for 4 or 24 hr at 37° C. Cells were then harvested by centrifugation and washed with cold PBS. Cell pellets were resuspended in cell extraction buffer (Invitrogen) supplemented with 2×Halt™ protease and phosphatase inhibitor cocktail (Thermo Scientific), 2 mM sodium orthovanadate, 10 mM EDTA and 4 mM PMSF. Samples were lysed by sonication and incubated on ice for 30 min. Cell debris was removed by centrifugation and protein concentrations were determined using the BCA Protein Assay Kit (Pierce). The clarified lysate was diluted in LDS sample buffer with reducing agent (Life Technologies). […] Gels were run at 110 V and proteins were transferred to a PVDF membrane. Membranes were blocked in TBS blocking buffer (Li-Cor Biosciences) for 1 hr. Primary antibodies (Cell Signaling, Sant Cruz Biotechnology) were added (1:1,000 dilution) in blocking buffer with 0.1% Tween-20 and 1:20,000 dilution of β-actin antibody and incubated for 14 hr at 4° C. Blots were washed in TBS-T. Label-conjugated goat anti-rabbit secondary antibody (IRdye® 800CW; Li-Cor Biosciences) was added in blocking buffer with 0.1% Tween-20 and 0.02% SDS and incubated for 1 hr. After washing in TBS-T followed by TBS, membranes were scanned on an Odyssey imaging system (Li-Cor Biosciences). Bands were quantitated using ImageJ.

[14] = tested on: A20; assay: MTS cell proliferation assay, A20; type: cell-based, murine; settings: Mus musculus; A20, 72 hr
Description: as §2

Row | pEC50 [3] | tumor exposure [4] [mM] | pEC50 ([5]; Homo sapiens, MV4-11, 72 hr, read-out: MTS proliferation assay) | pEC50 [6] | pEC50 [9] | Structure (SMILES) | inhibition of P-AKT in tumors [1] | inhibition of P-PDK1 [2] [%] | inhibition of PDK1 in tumors [2] [%] | plateau of growth inhibition curve ([5]; MV4-11) | pEC50 [7] | effect on PDK1 phosphorylation [8] | effect on RSK2 phosphorylation [10] | plateau of growth inhibition curve ([11]; C1498) | pEC50 ([11]; Mus musculus, C1498, 72 hr, read-out: MTS proliferation assay) | pEC50 [12] | P-AKT levels [13] | pEC50 [14]
1 | 5.21 to 7.30 | 0.4 to 1.4 | – | – | – | CS(=O)(=O)N1CCN(Cc2cc3nc(-c4cccc5[nH]ncc45)nc(N4CCOCC4)c3s2)CC1 [GDC-0941, pictilisib] | no inhibition | 25 | 45 | – | – | – | – | – | – | – | – | –
2 | 4.97 to 7.00 | – | 5.89 | 6.04 | 5.86 | NC1(c2ccc(-c3nc4ccn5c(=O)[nH]nc5c4cc3-c3ccccc3)cc2)CCC1 [MK-2206, reference compound] | – | – | – | do not reach a plateau below 20% | 6.01 | appears to enhance | appears to enhance | do not reach a plateau below 20% | 6.09 | 5.31 | sensitive | 6.86
